Assay results published in PubChem BioAssay AID330 (DTP/NCI, 2004).
Values joined by “and” are separate entries in the source; they are usually repeats but may differ in a detail not shown here. Identical values can stand only once. Toxic doses and inconclusive results are not listed. How the source made its calls: active means survival T/C of 150% or more; inactive means T/C below 125% in these data.

System: P388 leukemia ip, CD2F1 mice, survival T/C
Experiment: NCI In Vivo Anticancer Drug Screen. Data for tumor model P388 Leukemia (intraperitoneal) in CD2F1 (CDF1) mice
Conditions: endpoint: median survival time, higher = longer survival
Outline: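 Mice carrying the transplanted tumor received test compound or vehicle. Survival was recorded in each group, and the value is the treated-group measurement divided by that of the vehicle-treated control group.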

[1] = dose: 50.0 mg/kg/injection, schedule: Q01DX009 (ip), vehicle: saline with Tween-80
[2] = dose: 100.0 mg/kg/injection, schedule: Q01DX009 (ip), vehicle: saline with Tween-80
[3] = dose: 200.0 mg/kg/injection, schedule: Q01DX009 (ip), vehicle: saline with Tween-80
[4] = dose: 60.0 mg/kg/injection, schedule: Q01DX005 (ip), vehicle: saline with Tween-80
[5] = dose: 120.0 mg/kg/injection, schedule: Q01DX005 (ip), vehicle: saline with Tween-80
[6] = dose: 240.0 mg/kg/injection, schedule: Q01DX005 (ip), vehicle: saline with Tween-80
[7] = dose: 100.0 mg/kg/injection, schedule: Q01DX001 (ip), vehicle: saline with Tween-80
[8] = dose: 12.5 mg/kg/injection, schedule: Q01DX009 (ip), vehicle: saline with Tween-80
[9] = dose: 25.0 mg/kg/injection, schedule: Q01DX009 (ip), vehicle: saline with Tween-80

Measured: T/C

CCCCCCCCCCCCCCCCCC[N+]1(CC)CCCCC1
inactive: dose: 0.04 mg/kg/injection, schedule: Q01DX009 (ip), vehicle: saline 95 % of control | dose: 0.09 mg/kg/injection, schedule: Q01DX009 (ip), vehicle: saline 92 % of control | dose: 0.19 mg/kg/injection, schedule: Q01DX009 (ip), vehicle: saline 103 % of control and 118 % of control | dose: 0.39 mg/kg/injection, schedule: Q01DX009 (ip), vehicle: saline 113 % of control and 120 % of control | dose: 0.78 mg/kg/injection, schedule: Q01DX009 (ip), vehicle: saline 99 % of control

C=CCCCC(=O)CCCCBr
inactive: [1] 122 % of control | [2] 108 % of control | [3] 110 % of control

COc1ccc(C(=O)CC(C(=O)O)c2ccc(OC)c(OC)c2)cc1OC (stereo not given)
inactive: dose: 100.0 mg/kg/injection, schedule: Q04DX003 (ip), vehicle: saline with Tween-80 90 % of control | dose: 200.0 mg/kg/injection, schedule: Q04DX003 (ip), vehicle: saline with Tween-80 86 % of control | dose: 400.0 mg/kg/injection, schedule: Q04DX003 (ip), vehicle: saline with Tween-80 86 % of control

CCOC(=O)CNC(=O)OC(C)(C)C
inactive: [4] 103 % of control | [5] 100 % of control | [6] 108 % of control

Cc1cc(Oc2ccc(Cl)cc2NC(=O)Nc2cccc(C(F)(F)F)c2)cc(S(=O)(=O)O)c1Cl
inactive: [7] 100 % of control

Clc1cc2c(nn1)Nc1ccccc1S2
inactive: [8] 97 % of control | [9] 96 % of control | [1] 99 % of control and 87 % of control | [2] 98 % of control | [3] 87 % of control

Cc1c(-c2ccccc2)ccnc1/C=N/NC(=S)NCc1cccnc1
inactive: [8] 98 % of control | [9] 96 % of control | [1] 111 % of control and 122 % of control | [2] 88 % of control

CCOC(=O)c1c(Cl)c(-c2ccccc2)c(=O)n2c1[nH]c1ccccc12
inactive: [7] 100 % of control | dose: 200.0 mg/kg/injection, schedule: Q01DX001 (ip), vehicle: saline with Tween-80 101 % of control | dose: 400.0 mg/kg/injection, schedule: Q01DX001 (ip), vehicle: saline with Tween-80 102 % of control

COC(=O)c1cc2c(s1)C(=O)c1ccccc1-2
inactive: [1] 91 % of control | [2] 103 % of control | [3] 100 % of control

CC1CC(=O)c2c(nn(C)c2COCc2ccccc2)C1 (stereo not given)
inactive: [4] 102 % of control | [5] 91 % of control | [6] 96 % of control

NC(N)=N/N=C1\C/C(=N\N=C(N)N)c2cc3ccccc3cc21
inactive: dose: 12.5 mg/kg/injection, schedule: Q01DX001 (ip), vehicle: saline with Tween-80 105 % of control | dose: 25.0 mg/kg/injection, schedule: Q01DX001 (ip), vehicle: saline with Tween-80 102 % of control | dose: 25.0 mg/kg/injection, schedule: Q01DX001 (ip), vehicle: saline 103 % of control | dose: 50.0 mg/kg/injection, schedule: Q01DX001 (ip), vehicle: saline with Tween-80 91 % of control | dose: 50.0 mg/kg/injection, schedule: Q01DX001 (ip), vehicle: saline 98 % of control | [7] 93 % of control | dose: 100.0 mg/kg/injection, schedule: Q01DX001 (ip), vehicle: saline 99 % of control
